Data reported in patent US9980943B2, “Methods of treating muscular dystrophy” (BOARD OF REGENTS OF THE NEVADA SYSTEM OF HIGHER EDUCATION, …, priority 2013, dated 2018).

Legend:
Type in all cases: cell-based, mouse
[1] = test system: α7 integrin (LacZ reporter in α7βgal+/− myoblasts); assay: Myoblast α7+/LacZ integrin FDG assay (Burkin assay in myoblasts, 96-well); conditions: 96-well; for Burkin Assay in Myoblasts, value relative to DMSO: SU9516 analogs, N=3-6; for Burkin Assay in Myoblasts, signal relative to DMSO: α7+/LacZ myoblasts
[2] = test system: α7 integrin (LacZ reporter in α7+/LacZ myotubes); assay: Myotube α7 integrin FDG assay (Burkin assay in myotubes, 96-well); conditions: for Burkin Assay in Myotubes, value relative to DMSO: SU9516 analogs, 96-well, N=3-6
[3] = test system: β-galactosidase in CMV-LacZ C2C12 myoblasts; assay: CMV-LacZ secondary screen in C2C12 myoblasts (β-Gal stabilizing assay); conditions: for CMV-LACZ in Myoblasts, value relative to DMSO: SU9516 analogs, C2C12 CMV-LacZ, N=2; for CMV-LACZ in Myoblasts (β-galactosidase activity relative to DMSO): CMV-LacZ C2C12 myoblasts
Summary of the method: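 A secondary screen identifies compounds that stabilize β-gal independently of the native promoter, using CMV-LacZ C2C12 cells. Curves span 0.5–40 μM at six levels, in duplicate.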

[4] = test system: β-galactosidase in CMV-LacZ C2C12 myotubes; assay: CMV-LacZ secondary screen in C2C12 myotubes (β-Gal stabilizing assay); conditions: for CMV-LACZ in Myotubes, value relative to DMSO: SU9516 analogs, C2C12 CMV-LacZ, N=2; for CMV-LACZ in Myotubes, signal relative to DMSO: C2C12 CMV-LacZ myotubes, fold relative to DMSO
Summary of the method: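 β-gal stabilization was measured in C2C12 myoblasts or myotubes stably transfected with a CMV-driven LacZ construct, using the FDG β-gal assay. Compounds were tested in dose-response at 0.5, 1, 5, 10, 20 and 40 μM, with two replicates per point.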

CCn1c(O)c(C(C#N)=C2N=c3ccccc3=N2)c2ccccc21 [MLS000564846-01]
Burkin Assay in Myoblasts, value relative to DMSO ([1]; 0.5 uM): 0.8359
Burkin Assay in Myoblasts, value relative to DMSO ([1]; 1 uM): 0.8438
Burkin Assay in Myoblasts, value relative to DMSO ([1]; 5 uM): 0.8067
Burkin Assay in Myoblasts, value relative to DMSO ([1]; 10 uM): 0.8704
Burkin Assay in Myoblasts, value relative to DMSO ([1]; 20 uM): 0.7406
Burkin Assay in Myoblasts, value relative to DMSO ([1]; 40 uM): 0.759
Burkin Assay in Myotubes, value relative to DMSO ([2]; 0.5 uM): 0.8836
Burkin Assay in Myotubes, value relative to DMSO ([2]; 1 uM): 0.9557
Burkin Assay in Myotubes, value relative to DMSO ([2]; 5 uM): 1.002
Burkin Assay in Myotubes, value relative to DMSO ([2]; 10 uM): 1.071
Burkin Assay in Myotubes, value relative to DMSO ([2]; 20 uM): 0.7006
Burkin Assay in Myotubes, value relative to DMSO ([2]; 40 uM): 0.7529
CMV-LACZ in Myoblasts, value relative to DMSO ([3]; 0.5 uM): 0.9922
CMV-LACZ in Myoblasts, value relative to DMSO ([3]; 1 uM): 0.8172
CMV-LACZ in Myoblasts, value relative to DMSO ([3]; 5 uM): 0.9379
CMV-LACZ in Myoblasts, value relative to DMSO ([3]; 10 uM): 1.3619
CMV-LACZ in Myoblasts, value relative to DMSO ([3]; 20 uM): 1.2363
CMV-LACZ in Myoblasts, value relative to DMSO ([3]; 40 uM): 1.0885
CMV-LACZ in Myotubes, value relative to DMSO ([4]; 0.5 uM): 0.8304
CMV-LACZ in Myotubes, value relative to DMSO ([4]; 1 uM): 1.0444
CMV-LACZ in Myotubes, value relative to DMSO ([4]; 5 uM): 1.1234
CMV-LACZ in Myotubes, value relative to DMSO ([4]; 10 uM): 0.8711
CMV-LACZ in Myotubes, value relative to DMSO ([4]; 20 uM): 1.2012
CMV-LACZ in Myotubes, value relative to DMSO ([4]; 40 uM): 1.0094

CCCCN(CC)Cc1ccc(CNC(=S)Nc2ccccc2F)o1 [MLS000689562-01]
Burkin Assay in Myoblasts, signal relative to DMSO ([1]; 0.5 uM): 1.074
Burkin Assay in Myoblasts, signal relative to DMSO ([1]; 1 uM): 1.014
Burkin Assay in Myoblasts, signal relative to DMSO ([1]; 5 uM): 1.013
Burkin Assay in Myoblasts, signal relative to DMSO ([1]; 10 uM): 1.224
Burkin Assay in Myoblasts, signal relative to DMSO ([1]; 20 uM): 0.9537
Burkin Assay in Myoblasts, signal relative to DMSO ([1]; 40 uM): 0.8817
Burkin Assay in Myotubes, α7 integrin LacZ reporter signal relative to DMSO ([2]; 0.5 uM): 1.081
Burkin Assay in Myotubes, α7 integrin LacZ reporter signal relative to DMSO ([2]; 1 uM): 1.035
Burkin Assay in Myotubes, α7 integrin LacZ reporter signal relative to DMSO ([2]; 5 uM): 0.9788
Burkin Assay in Myotubes, α7 integrin LacZ reporter signal relative to DMSO ([2]; 10 uM): 1.0159
Burkin Assay in Myotubes, α7 integrin LacZ reporter signal relative to DMSO ([2]; 20 uM): 0.7236
Burkin Assay in Myotubes, α7 integrin LacZ reporter signal relative to DMSO ([2]; 40 uM): 0.8547
CMV-LACZ in Myoblasts (β-galactosidase activity relative to DMSO) ([3]; 0.5 uM): 0.8453
CMV-LACZ in Myoblasts (β-galactosidase activity relative to DMSO) ([3]; 1 uM): 0.7409
CMV-LACZ in Myoblasts (β-galactosidase activity relative to DMSO) ([3]; 5 uM): 0.8060
CMV-LACZ in Myoblasts (β-galactosidase activity relative to DMSO) ([3]; 10 uM): 1.0858
CMV-LACZ in Myoblasts (β-galactosidase activity relative to DMSO) ([3]; 20 uM): 0.9919
CMV-LACZ in Myoblasts (β-galactosidase activity relative to DMSO) ([3]; 40 uM): 1.0619
CMV-LACZ in Myotubes, signal relative to DMSO ([4]; 0.5 uM): 0.9474
CMV-LACZ in Myotubes, signal relative to DMSO ([4]; 1 uM): 0.8652
CMV-LACZ in Myotubes, signal relative to DMSO ([4]; 5 uM): 1.0300
CMV-LACZ in Myotubes, signal relative to DMSO ([4]; 10 uM): 0.8105
CMV-LACZ in Myotubes, signal relative to DMSO ([4]; 20 uM): 0.9824
CMV-LACZ in Myotubes, signal relative to DMSO ([4]; 40 uM): 0.9788

N#C/C(=C/c1ccc(N2CCOCC2)o1)C(=O)Nc1ccccc1 [MLS000689218-01]
Burkin Assay in Myoblasts, signal relative to DMSO ([1]; 0.5 uM): 1.068
Burkin Assay in Myoblasts, signal relative to DMSO ([1]; 1 uM): 1.171
Burkin Assay in Myoblasts, signal relative to DMSO ([1]; 5 uM): 1.132
Burkin Assay in Myoblasts, signal relative to DMSO ([1]; 10 uM): 1.051
Burkin Assay in Myoblasts, signal relative to DMSO ([1]; 20 uM): 1.07
Burkin Assay in Myoblasts, signal relative to DMSO ([1]; 40 uM): 1.037
Burkin Assay in Myotubes, α7 integrin LacZ reporter signal relative to DMSO ([2]; 0.5 uM): 0.9663
Burkin Assay in Myotubes, α7 integrin LacZ reporter signal relative to DMSO ([2]; 1 uM): 1.083
Burkin Assay in Myotubes, α7 integrin LacZ reporter signal relative to DMSO ([2]; 5 uM): 0.97
Burkin Assay in Myotubes, α7 integrin LacZ reporter signal relative to DMSO ([2]; 10 uM): 0.9829
Burkin Assay in Myotubes, α7 integrin LacZ reporter signal relative to DMSO ([2]; 20 uM): 1.008
Burkin Assay in Myotubes, α7 integrin LacZ reporter signal relative to DMSO ([2]; 40 uM): 0.9676
CMV-LACZ in Myoblasts (β-galactosidase activity relative to DMSO) ([3]; 0.5 uM): 1.1977
CMV-LACZ in Myoblasts (β-galactosidase activity relative to DMSO) ([3]; 1 uM): 1.2273
CMV-LACZ in Myoblasts (β-galactosidase activity relative to DMSO) ([3]; 5 uM): 0.8689
CMV-LACZ in Myoblasts (β-galactosidase activity relative to DMSO) ([3]; 10 uM): 1.0813
CMV-LACZ in Myoblasts (β-galactosidase activity relative to DMSO) ([3]; 20 uM): 1.2835
CMV-LACZ in Myoblasts (β-galactosidase activity relative to DMSO) ([3]; 40 uM): 1.6337
CMV-LACZ in Myotubes, signal relative to DMSO ([4]; 0.5 uM): 0.9657
CMV-LACZ in Myotubes, signal relative to DMSO ([4]; 1 uM): 0.9514
CMV-LACZ in Myotubes, signal relative to DMSO ([4]; 5 uM): 1.3684
CMV-LACZ in Myotubes, signal relative to DMSO ([4]; 10 uM): 1.2135
CMV-LACZ in Myotubes, signal relative to DMSO ([4]; 20 uM): 1.4900
CMV-LACZ in Myotubes, signal relative to DMSO ([4]; 40 uM): 1.7990

O=C(NCCc1ccc(Cl)cc1)C1CCCO1 (stereo not drawn) [MLS001198271-01]
Burkin Assay in Myoblasts, signal relative to DMSO ([1]; 0.5 uM): 1.034
Burkin Assay in Myoblasts, signal relative to DMSO ([1]; 1 uM): 1
Burkin Assay in Myoblasts, signal relative to DMSO ([1]; 5 uM): 1.292
Burkin Assay in Myoblasts, signal relative to DMSO ([1]; 10 uM): 1.034
Burkin Assay in Myoblasts, signal relative to DMSO ([1]; 20 uM): 1.088
Burkin Assay in Myoblasts, signal relative to DMSO ([1]; 40 uM): 1.0038
Burkin Assay in Myotubes, α7 integrin LacZ reporter signal relative to DMSO ([2]; 0.5 uM): 1.0083
Burkin Assay in Myotubes, α7 integrin LacZ reporter signal relative to DMSO ([2]; 1 uM): 0.9334
Burkin Assay in Myotubes, α7 integrin LacZ reporter signal relative to DMSO ([2]; 5 uM): 1.113
Burkin Assay in Myotubes, α7 integrin LacZ reporter signal relative to DMSO ([2]; 10 uM): 0.9856
Burkin Assay in Myotubes, α7 integrin LacZ reporter signal relative to DMSO ([2]; 20 uM): 0.9056
Burkin Assay in Myotubes, α7 integrin LacZ reporter signal relative to DMSO ([2]; 40 uM): 0.8217
CMV-LACZ in Myoblasts (β-galactosidase activity relative to DMSO) ([3]; 0.5 uM): 1.0204
CMV-LACZ in Myoblasts (β-galactosidase activity relative to DMSO) ([3]; 1 uM): 1.0883
CMV-LACZ in Myoblasts (β-galactosidase activity relative to DMSO) ([3]; 5 uM): 1.2105
CMV-LACZ in Myoblasts (β-galactosidase activity relative to DMSO) ([3]; 10 uM): 0.8516
CMV-LACZ in Myoblasts (β-galactosidase activity relative to DMSO) ([3]; 20 uM): 0.9944
CMV-LACZ in Myoblasts (β-galactosidase activity relative to DMSO) ([3]; 40 uM): 1.2089
CMV-LACZ in Myotubes, signal relative to DMSO ([4]; 0.5 uM): 0.9933
CMV-LACZ in Myotubes, signal relative to DMSO ([4]; 1 uM): 1.0686
CMV-LACZ in Myotubes, signal relative to DMSO ([4]; 5 uM): 0.9907
CMV-LACZ in Myotubes, signal relative to DMSO ([4]; 10 uM): 0.9957
CMV-LACZ in Myotubes, signal relative to DMSO ([4]; 20 uM): 1.1053
CMV-LACZ in Myotubes, signal relative to DMSO ([4]; 40 uM): 1.0053

O=C(CSc1nnc(COc2ccc(Br)cc2)o1)NC1CCCCC1 [MLS001215357-01]
Burkin Assay in Myoblasts, signal relative to DMSO ([1]; 0.5 uM): 1.037
Burkin Assay in Myoblasts, signal relative to DMSO ([1]; 1 uM): 0.93
Burkin Assay in Myoblasts, signal relative to DMSO ([1]; 5 uM): 0.8837
Burkin Assay in Myoblasts, signal relative to DMSO ([1]; 10 uM): 1.489
Burkin Assay in Myoblasts, signal relative to DMSO ([1]; 20 uM): 0.9203
Burkin Assay in Myoblasts, signal relative to DMSO ([1]; 40 uM): 0.5327
Burkin Assay in Myotubes, α7 integrin LacZ reporter signal relative to DMSO ([2]; 0.5 uM): 0.9366
Burkin Assay in Myotubes, α7 integrin LacZ reporter signal relative to DMSO ([2]; 1 uM): 0.8137
Burkin Assay in Myotubes, α7 integrin LacZ reporter signal relative to DMSO ([2]; 5 uM): 0.9057
Burkin Assay in Myotubes, α7 integrin LacZ reporter signal relative to DMSO ([2]; 10 uM): 0.884
Burkin Assay in Myotubes, α7 integrin LacZ reporter signal relative to DMSO ([2]; 20 uM): 0.756
Burkin Assay in Myotubes, α7 integrin LacZ reporter signal relative to DMSO ([2]; 40 uM): 0.6929
CMV-LACZ in Myoblasts (β-galactosidase activity relative to DMSO) ([3]; 0.5 uM): 1.1560
CMV-LACZ in Myoblasts (β-galactosidase activity relative to DMSO) ([3]; 1 uM): 1.2686
CMV-LACZ in Myoblasts (β-galactosidase activity relative to DMSO) ([3]; 5 uM): 0.8575
CMV-LACZ in Myoblasts (β-galactosidase activity relative to DMSO) ([3]; 10 uM): 1.0378
CMV-LACZ in Myoblasts (β-galactosidase activity relative to DMSO) ([3]; 20 uM): 1.2467
CMV-LACZ in Myoblasts (β-galactosidase activity relative to DMSO) ([3]; 40 uM): 0.4719
CMV-LACZ in Myotubes, signal relative to DMSO ([4]; 0.5 uM): 1.1547
CMV-LACZ in Myotubes, signal relative to DMSO ([4]; 1 uM): 1.1400
CMV-LACZ in Myotubes, signal relative to DMSO ([4]; 5 uM): 1.1407
CMV-LACZ in Myotubes, signal relative to DMSO ([4]; 10 uM): 1.1192
CMV-LACZ in Myotubes, signal relative to DMSO ([4]; 20 uM): 1.3622
CMV-LACZ in Myotubes, signal relative to DMSO ([4]; 40 uM): 1.0667
